Reference: US20220187282A1, “CARDIOMYOCYTE PROLIFERATION” (The Council of the Queensland Institute of Medical Research, priority 2019, published 2022)

Columns and labels:
hPSC-CMs = test: 2D high-content primary screen, DNA synthesis (EdU) in hPSC-CM; format: cell-based, human; details: for 2D Screen Max Effect (%): maximum over 0.1, 1, 10 uM
Description: The compound library included 5,000 biologically annotated pre-clinical, clinical, and tool compounds. They were selected based on a combination of criteria including balancing the number of external/internal compounds, diversity of annotated targets to cover greater than 1500 biological targets, and known targets associated with cell proliferation. […] Both negative vehicle (DMSO) and positive (CHIR99021) controls were included on each plate in each experiment (FIG. 2B,C).

[1] = pharmacokinetic properties in vivo
mature hCO = test: RNA-sequencing of mature hCO treated with compounds; format: cell-based, human; details: 2 days; for genes regulated (RNA-seq): 3 μM compound 3, 0.3 μM compound 63, 1 μM compound 65
Experimental: For each experiment 15-20 hCOs were pooled, snap frozen and RNA extracted using Trizol (ThermoFisher Scientific), treated with DNAse (Qiagen) and purified using RNeasy Minielute Cleanup Kit (Qiagen). The quality of the RNA was assessed by Fragment Analyzer (Advances Analytical Technologies) and samples with RNA quality number >8.9 were used for library preparation. RNA samples were processed with Illumina TruSeq Stranded mRNA Library prep kit selecting for poly(A) tailed RNA following the manufacturer's recommendations. Libraries were quantified with Qubit HS (ThermoFisher) and Fragment Analyzer (Advances Analytical Technologies) adjusted to the appropriate concentration for sequencing. Indexed libraries were pooled and sequenced at a final concentration of 1.8 pmol/L on an Illumina NextSeq 500 high-output run using paired-end chemistry with 75 bp read length.
The sequencing data was demultiplexed using Illumina bc12fastq2-v2.17. The quality of the reads was assessed thanks to FastQC (https://www.bioinformatics.babraham.ac.uk/projects/fastqc/). The reads were then processed and mapped to the human genome hg38 using the Bcbio-nextgen framework version 1.0.3 (https://github.com/chapmanb/bcbio-nextgen). The aligner used was HISAT2 2.0.5. For sample quality assessment, raw counts were normalised with DESeq2 regularized logarithm function. A principal component analysis (PCA) was performed using R v 3.3.1(Team, 2015) and led to the detection of a batch effect among samples which was corrected using the removeBatchEffect function from Limma v3.30.13. The identification of the differentially expressed genes between treated and non-treated samples was performed using DESeq2 v1.14.1 (Love et al., 2014) in R v 3.3.1 (Team, 2015) using the design ˜Batch+Compound to account for the batch effect directly. A FDR of 0.1 was defined to call for differentially expressed genes. The mechanistic networks in were generated using IPA upstream analysis (QIAGEN Inc., https://www.qiagenbioinformatics.com/products/ingenuity-pathway-analysis). Gene Ontology (GO) annotations enrichment analyses were performed with GOSeq v1.28.0 (Young et al., 2010), were generated in R using ggplot2 (http://ggplot2.tidyverse.org/index.html) and package GOSemSim v2.2.0 (Yu et al., 2010) for term similarities.
In order to determine the biological processes driving the pro-proliferative effects of our hit compounds, we performed RNA-sequencing (RNA-seq) and single organoid quantitative proteomics (FIG. 4A). These analyses were performed on hCOs treated with compounds 3, 63 and 65 at concentrations of 3 μM, 0.3 μM and 1 μM, respectively. RNA-seq for hCO treated with compounds 3 and 65 clustered distinctly in principal component analysis (FIG. 4B) and regulated a total of 239 and 207 genes (FIG. 9A), respectively.

mature hCOs = test: mature hCO, cardiomyocyte proliferation (Ki-67 intensity, Ki-67+ α-actinin cardiomyocytes); format: cell-based, human; details: mature hCO; for Ki-67+ cardiomyocytes: 2 days, compound 3 at 3 μM, 63 at 0.3 μM, 65 at 1 μM; for proliferative response (Ki-67 intensity) with 10 μM simvastatin: 1 μM compound 65, 3 μM compound 3 or 10 μM compound 6.28; for proliferation above the optimal concentrations: above 3 μM (compound 3), above 1 μM (compound 65)
Experimental: hCOs were cultured in CTRL medium for formation for 5 days and then either kept in CTRL medium culture or changed to maturation medium (Mills et al., 2017a) comprising DMEM without glucose, glutamine and phenol red (ThermoFisher Scientific) supplemented with 4% […](without insulin) (ThermoFisher Scientific), 1% GlutaMAX (ThermoFisher Scientific), 200 μM L-ascorbic acid 2-phosphate sesquimagnesium salt hydrate and 1% Penicillin/Streptomycin (ThermoFisher Scientific), 1 mmol/L glucose and 100 μmon palmitic acid (conjugated to bovine serum albumin within B27 by incubating for 2h at 37° C., Sigma) with changes every 2-3 days.
Whole-Mount Immunostaining hCOs were fixed for 60 min with 1% paraformaldehyde (Sigma) at room temperature and washed 3× with PBS, after which they were incubated with primary antibodies (see Star Methods Table) in Blocking Buffer, 5% FBS and 0.2% Triton-X-100 (Sigma) in PBS overnight at 4° C. Cells were then washed in Blocking Buffer 2× for 2 h and subsequently incubated with secondary antibodies (see Star Methods Table) and Hoechst33342 (1:1000) overnight at 4° C. They were washed in Blocking Buffer 2× for 2 h and imaged in situ or mounted on microscope slides using Fluoromount-G (Southern Biotech).
For screening hCOs were imaged using a Leica DMi8 high content imaging microscope for in situ imaging. Custom batch processing files were written in Matlab R2013a (Mathworks) to remove the background, calculate the image intensity, and export the batch data to an Excel (Microsoft) spreadsheet.
For more detailed images an Olympus IX81 confocal microscope was used for mounted hCO imaging. For cell cycle analysis experiments 3 random fields of view were imaged and manually quantified for proliferation. These were added together to calculate the percentage of hPSC-CM proliferation in each hCO.
Hits were next validated in mature hCOs using a targeted concentration range based on their active concentrations in the initial immature hCO screen (FIG. 3A). Proliferation markers were quantified using high magnification confocal imaging as we found flow cytometry to be inaccurate in hCO (data not shown). Compounds 3, 63 and 65 had no impact on contractile force (FIG. 3B) at concentrations of 3 μM, 0.3 μM and 1 μM, respectively. […] The effects of both compound 3 and compound 65 were reversible, with proliferation ceasing within 5 days of compound withdrawal (FIG. 8B). Therefore, compound 3 (FIG. 3G) and compound 65 (Goldberg et al., 2009) (FIG. 3H) are both capable of inducing bona fide cardiomyocyte proliferation in mature hCOs without adversely affecting contractile properties.

| SMILES | 2D Screen (AZ) 0.1 uM Prolif Activation EdU (%) (hPSC-CMs) | 2D Screen (AZ) 1 uM Prolif Activation EdU (%) (hPSC-CMs) | 2D Screen (AZ) 10 uM Prolif Activation EdU (%) (hPSC-CMs) | 2D Screen Max Effect (%) (hPSC-CMs) | pharmacokinetic properties [1] | network significantly regulated (network analysis of RNA-seq) (mature hCO) | transcription of cell cycle controllers PLK1, CCNB2, CCND1, CCNA2 and FOXM1 (mature hCO; 3 μM) | genes regulated (RNA-seq) (mature hCO) | Ki-67+ cardiomyocytes with 10 μM simvastatin (mature hCOs; 3 μM compound 3) | Ki-67+ cardiomyocytes (mature hCOs) | proliferative response (Ki-67 intensity) with 10 μM simvastatin (mature hCOs) | proliferation above the optimal concentrations (mature hCOs) | mevalonate pathway enzymes SQLE, HMGCS1 and CYP51A1 (mature hCO; 1 μM) | networks regulated based on RNA-seq data (gene ontologies) (mature hCO; 1 μM) | transcription of CDKN2B (p15) (mature hCO; 1 μM) |
| --- | --- | --- | --- | --- | --- | --- | --- | --- | --- | --- | --- | --- | --- | --- | --- |
| Cc1ccc(NC(=O)c2ccnc(N3CCOCC3)c2)cc1Nc1ccnc(N2CC(C)OC(C)C2)n1 (stereo not shown) [compound 3] | −6% | 35% | 183% | 183% | poor | MAPK14 (p38α) network | upregulated | 239 genes | abolished | increased | abolished | no further increase | – | – | – |
| Cc1cc(Oc2ccnc(Nc3ccc(S(N)(=O)=O)cc3)c2)c(-c2ccccn2)nc1C [compound 65] | 48% | 76% | 171% | 171% | poor | TGFβ receptor (TGFβR) and bone morphogenic protein receptor (BMPR) networks | – | 207 genes | – | increased | abolished | no further increase | activated | an extracellular matrix network and a cholesterol biosynthesis network | inhibited |
